The target of assay [1] is T1, Voltage-gated N-type calcium channel alpha-1B subunit/Amyloid beta A4 precursor protein-binding family A member 1 (Homo sapiens, UniProt Q00975+Q02410). The class given is protein assay.
Assay [2] has as its target T2, RNA-binding protein pos-1 (Caenorhabditis elegans, UniProt G5EF15).
T2 sequence (G5EF15 whole entry): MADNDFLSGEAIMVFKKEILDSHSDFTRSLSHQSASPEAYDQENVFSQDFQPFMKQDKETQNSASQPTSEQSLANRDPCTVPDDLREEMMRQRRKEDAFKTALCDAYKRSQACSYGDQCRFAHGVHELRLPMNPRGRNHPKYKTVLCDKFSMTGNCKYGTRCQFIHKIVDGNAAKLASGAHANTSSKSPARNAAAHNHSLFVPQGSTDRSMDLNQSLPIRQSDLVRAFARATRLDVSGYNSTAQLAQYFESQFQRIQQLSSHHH
Kind of assay: inhibitors of POS-1/mex-3 RNA binding, dose response, biochemical, fluorescence polarization (AID 1964).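 Note: purified POS-1 fused to maltose binding protein made in E. coli; potency of compounds blocking POS-1 binding to fluorescent RNA.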 Background: In fluorescence polarisation assays a small probe gives low polarisation when free and higher when bound to something large.

The target of a further assay is Large T antigen (Simian virus 40, UniProt P03070). The class given is functional, Betapolyomavirus macacae.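 Note: Confirmatory-stage PubChem screen for compounds that inhibit SV40 T antigen.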
For assay [3], the target named is T3, Zinc finger protein mex-5 (Caenorhabditis elegans, UniProt Q9XUB2).
T3 sequence (Q9XUB2 whole entry): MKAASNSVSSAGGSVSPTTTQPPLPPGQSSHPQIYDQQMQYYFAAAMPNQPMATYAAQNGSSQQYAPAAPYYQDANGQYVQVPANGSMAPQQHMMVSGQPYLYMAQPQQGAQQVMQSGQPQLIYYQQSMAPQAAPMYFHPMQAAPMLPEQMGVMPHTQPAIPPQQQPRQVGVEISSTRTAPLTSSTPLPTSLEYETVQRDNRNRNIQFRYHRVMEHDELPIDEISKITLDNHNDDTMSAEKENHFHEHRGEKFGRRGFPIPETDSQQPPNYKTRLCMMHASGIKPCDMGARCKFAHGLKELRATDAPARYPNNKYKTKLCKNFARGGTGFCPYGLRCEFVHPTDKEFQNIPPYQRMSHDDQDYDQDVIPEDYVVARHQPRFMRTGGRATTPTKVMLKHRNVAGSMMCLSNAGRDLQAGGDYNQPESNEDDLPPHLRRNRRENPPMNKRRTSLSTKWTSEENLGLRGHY
The experiment in a line: MEX-5/TCR-2 RNA interaction inhibitors, dose response, biochemical, C. elegans, fluorescence polarization (AID 1960).

Assay [4] deals with T1, Voltage-gated N-type calcium channel alpha-1B subunit/Amyloid beta A4 precursor protein-binding family A member 1. The class given is protein assay. The source holds these as a separate data set.
The target of another assay is T4, Aminopeptidase N (Plasmodium falciparum FcB1/Columbia, UniProt O96935).
T4 sequence (O96935 whole entry): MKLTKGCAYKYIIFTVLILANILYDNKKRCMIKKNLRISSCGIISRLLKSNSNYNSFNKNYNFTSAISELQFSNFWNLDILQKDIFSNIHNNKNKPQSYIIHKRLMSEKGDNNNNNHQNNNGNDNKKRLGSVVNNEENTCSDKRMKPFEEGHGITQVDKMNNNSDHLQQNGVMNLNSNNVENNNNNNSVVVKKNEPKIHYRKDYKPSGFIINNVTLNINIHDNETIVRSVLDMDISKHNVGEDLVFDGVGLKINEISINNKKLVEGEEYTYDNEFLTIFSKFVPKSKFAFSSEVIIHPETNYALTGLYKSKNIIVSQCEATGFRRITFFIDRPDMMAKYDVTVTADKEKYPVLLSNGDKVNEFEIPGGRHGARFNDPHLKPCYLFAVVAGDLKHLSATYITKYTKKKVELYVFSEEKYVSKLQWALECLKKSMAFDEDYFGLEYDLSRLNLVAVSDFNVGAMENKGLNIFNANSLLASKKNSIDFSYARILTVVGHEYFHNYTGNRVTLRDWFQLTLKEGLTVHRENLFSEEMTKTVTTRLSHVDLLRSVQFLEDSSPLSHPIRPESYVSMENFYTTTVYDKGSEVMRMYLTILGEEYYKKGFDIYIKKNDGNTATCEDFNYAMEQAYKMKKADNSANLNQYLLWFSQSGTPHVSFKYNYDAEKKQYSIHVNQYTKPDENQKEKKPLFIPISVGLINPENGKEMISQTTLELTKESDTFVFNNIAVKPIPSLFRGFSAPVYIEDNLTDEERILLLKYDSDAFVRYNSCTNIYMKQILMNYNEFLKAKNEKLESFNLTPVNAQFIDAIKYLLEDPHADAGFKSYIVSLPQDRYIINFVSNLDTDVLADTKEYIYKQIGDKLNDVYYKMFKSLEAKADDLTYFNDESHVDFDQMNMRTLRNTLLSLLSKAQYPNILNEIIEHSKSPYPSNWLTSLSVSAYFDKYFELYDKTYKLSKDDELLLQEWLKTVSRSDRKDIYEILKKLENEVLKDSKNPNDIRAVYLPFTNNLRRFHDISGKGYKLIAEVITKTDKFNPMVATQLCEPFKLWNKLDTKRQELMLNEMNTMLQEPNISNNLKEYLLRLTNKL
Kind of assay: P. falciparum M1AAP inhibitors, biochemical, fluorogenic H-Leu-NHMec substrate, 1536-well (AID 1445). Details: species or system Plasmodium falciparum 3D7, 3D7.

Assay [5] deals with DNA dC->dU-editing enzyme APOBEC-3G (Homo sapiens, UniProt Q9HC16). Kind of assay: Dose Response confirmation of small molecule APOBEC3G DNA Deaminase Inhibitors via a fluorescence-based single-stranded DNA deaminase assay. [Related pubchem assays (depositor defined):AID493012, AID493028]. The class given is functional.
For another assay, the system named is H9c2. The experiment in a line: cells. The class given is functional, cell-based. The note with it: Rattus norvegicus, H9c2, Myocardium.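 Note: confirmatory concentration-response retest of ultra-high-throughput screening hits for modulation of myocardial damage; cell death induced by hydrogen peroxide oxidative stress; compound pretreatment for 60 min then peroxide exposure for 2 h; potency is for protecting the cells against peroxide damage rather than for killing them.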
Assay [6] can be described thus: cytotoxicity in HEK-293T cells, dose response, cytotoxicity control for BCR NF-kB inhibitor project, luminescence, B-cell screen hits (AID 489021).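 Note: HEK-293T cells carrying an NF-kB luciferase reporter; cells exposed to compound for about 14 hours before viability readout.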 The class given is functional, cell-based.
The target in assay [7] is Glucose-6-phosphate 1-dehydrogenase (Homo sapiens, UniProt P11413). Kind of assay: human G6PD enzyme inhibitors, dose response, selectivity assay for P. falciparum G6PD inhibitor project, biochemical, fluorescence (AID 504792). The class given is functional.
For another assay, the target named is T5, Protein RecA (Mycobacterium tuberculosis, UniProt P9WHJ3).
T5 sequence (P9WHJ3 whole entry): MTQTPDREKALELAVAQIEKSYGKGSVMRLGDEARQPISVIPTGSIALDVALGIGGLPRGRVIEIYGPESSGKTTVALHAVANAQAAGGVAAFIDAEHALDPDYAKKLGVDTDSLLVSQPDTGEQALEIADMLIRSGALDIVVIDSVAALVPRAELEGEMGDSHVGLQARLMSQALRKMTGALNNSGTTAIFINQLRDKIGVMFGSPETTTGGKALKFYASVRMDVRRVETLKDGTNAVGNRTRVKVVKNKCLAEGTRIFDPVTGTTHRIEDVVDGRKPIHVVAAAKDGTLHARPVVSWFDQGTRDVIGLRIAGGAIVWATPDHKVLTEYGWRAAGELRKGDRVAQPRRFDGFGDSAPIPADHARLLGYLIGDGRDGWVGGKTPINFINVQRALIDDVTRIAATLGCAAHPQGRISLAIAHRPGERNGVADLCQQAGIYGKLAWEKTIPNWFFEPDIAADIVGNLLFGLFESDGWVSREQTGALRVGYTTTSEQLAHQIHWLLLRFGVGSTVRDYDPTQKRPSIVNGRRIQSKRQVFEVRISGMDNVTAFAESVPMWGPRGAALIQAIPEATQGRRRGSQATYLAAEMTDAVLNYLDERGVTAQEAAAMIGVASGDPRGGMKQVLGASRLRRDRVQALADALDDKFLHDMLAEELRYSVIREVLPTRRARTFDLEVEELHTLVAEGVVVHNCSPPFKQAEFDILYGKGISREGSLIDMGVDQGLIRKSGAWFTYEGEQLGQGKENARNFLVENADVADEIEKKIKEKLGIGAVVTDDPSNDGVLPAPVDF
Kind of assay: Fluorescence Cell-Free Homogeneous Dose Retest to Identify Inhibitors of RecA-Intein Splicing Activity. [Related pubchem assays (depositor defined):AID2097, AID2223, AID489010, AID492950]. The class given is functional.

The next assay is described as follows: cells. The class given is functional.
Assay [8] relates to HEK293. The experiment in a line: cells. The class given is functional, cell-based. The conditions noted are these: Homo sapiens.
Assay [9] has as its system HEK293. The experiment in a line: NOD1 signaling inhibitors, primary screen, cell-based, luminescence, uHTS (AID 1578). The class given is functional. The note with it: Homo sapiens.
Assay [10] deals with HEK293. Kind of assay: cells. The note with it: Homo sapiens. The class given is functional, cell-based. This is another data set of the same source.
Assay [11] has as its target Nucleotide-binding oligomerization domain-containing protein 2 (Homo sapiens, UniProt Q9HC29). Kind of assay: NOD2 signaling inhibitors, cell-based, luminescence, uHTS, HEK293 (AID 1566). The class given is functional.
Assay [12] deals with HEK293. Kind of assay: NOD2 signaling inhibitors in MDP-stimulated cells, cell-based, uHTS, luminescence (AID 2001). The class given is functional. The note with it: Homo sapiens.
In assay [13] the test system is HEK293. The experiment in a line: cells. The class given is functional, cell-based. The note with it: Homo sapiens. This is another data set of the same source.
Assay [14] is described as follows: Shn3 3'UTR reporter inhibitors, dose response, cell-based, Clone20 osteoblasts, firefly luciferase, cherry-picked (AID 624132).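 Note: firefly luciferase luminescence from reporter carrying the Shn3 3'UTR in osteoblasts.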 The class given is functional.

The record followed here is ChEMBL document CHEMBL1201862, “PubChem BioAssay data set” (2004).

The IC50 is the concentration that gives 50% inhibition. What is called EC50 is the concentration that produces a half-maximal response. As usually defined, the AC50 is the concentration giving half of the maximal activity seen.

Activity calls are given as the source filed them.

Chain of Glucose-6-phosphate 1-dehydrogenase (P11413 whole entry): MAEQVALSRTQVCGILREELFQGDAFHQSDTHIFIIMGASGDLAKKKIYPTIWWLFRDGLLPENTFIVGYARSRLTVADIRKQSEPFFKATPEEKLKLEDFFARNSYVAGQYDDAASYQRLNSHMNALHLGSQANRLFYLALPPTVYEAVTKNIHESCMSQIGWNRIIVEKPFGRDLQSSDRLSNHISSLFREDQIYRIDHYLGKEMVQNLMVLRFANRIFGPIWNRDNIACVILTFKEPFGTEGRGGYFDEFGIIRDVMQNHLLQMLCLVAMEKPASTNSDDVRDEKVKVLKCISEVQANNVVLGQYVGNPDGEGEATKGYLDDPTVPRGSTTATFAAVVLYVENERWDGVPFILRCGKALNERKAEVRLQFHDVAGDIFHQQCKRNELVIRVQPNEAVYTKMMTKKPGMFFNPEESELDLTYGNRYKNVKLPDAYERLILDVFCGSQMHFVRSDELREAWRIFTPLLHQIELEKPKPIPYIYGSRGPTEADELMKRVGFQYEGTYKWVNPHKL
Chain of DNA dC->dU-editing enzyme APOBEC-3G (Q9HC16 whole entry): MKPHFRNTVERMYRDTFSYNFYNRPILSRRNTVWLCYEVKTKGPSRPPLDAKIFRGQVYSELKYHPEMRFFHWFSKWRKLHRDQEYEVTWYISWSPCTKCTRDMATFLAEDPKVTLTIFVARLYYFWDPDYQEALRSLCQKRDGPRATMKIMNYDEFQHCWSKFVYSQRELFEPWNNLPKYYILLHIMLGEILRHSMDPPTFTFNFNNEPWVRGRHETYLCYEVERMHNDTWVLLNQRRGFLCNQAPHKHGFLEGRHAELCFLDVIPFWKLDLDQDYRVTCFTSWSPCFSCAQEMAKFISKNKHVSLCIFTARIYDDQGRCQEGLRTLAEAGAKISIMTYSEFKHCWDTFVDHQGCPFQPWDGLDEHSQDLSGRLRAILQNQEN
Chain of Nucleotide-binding oligomerization domain-containing protein 2 (Q9HC29 whole entry, the tested form may be a part): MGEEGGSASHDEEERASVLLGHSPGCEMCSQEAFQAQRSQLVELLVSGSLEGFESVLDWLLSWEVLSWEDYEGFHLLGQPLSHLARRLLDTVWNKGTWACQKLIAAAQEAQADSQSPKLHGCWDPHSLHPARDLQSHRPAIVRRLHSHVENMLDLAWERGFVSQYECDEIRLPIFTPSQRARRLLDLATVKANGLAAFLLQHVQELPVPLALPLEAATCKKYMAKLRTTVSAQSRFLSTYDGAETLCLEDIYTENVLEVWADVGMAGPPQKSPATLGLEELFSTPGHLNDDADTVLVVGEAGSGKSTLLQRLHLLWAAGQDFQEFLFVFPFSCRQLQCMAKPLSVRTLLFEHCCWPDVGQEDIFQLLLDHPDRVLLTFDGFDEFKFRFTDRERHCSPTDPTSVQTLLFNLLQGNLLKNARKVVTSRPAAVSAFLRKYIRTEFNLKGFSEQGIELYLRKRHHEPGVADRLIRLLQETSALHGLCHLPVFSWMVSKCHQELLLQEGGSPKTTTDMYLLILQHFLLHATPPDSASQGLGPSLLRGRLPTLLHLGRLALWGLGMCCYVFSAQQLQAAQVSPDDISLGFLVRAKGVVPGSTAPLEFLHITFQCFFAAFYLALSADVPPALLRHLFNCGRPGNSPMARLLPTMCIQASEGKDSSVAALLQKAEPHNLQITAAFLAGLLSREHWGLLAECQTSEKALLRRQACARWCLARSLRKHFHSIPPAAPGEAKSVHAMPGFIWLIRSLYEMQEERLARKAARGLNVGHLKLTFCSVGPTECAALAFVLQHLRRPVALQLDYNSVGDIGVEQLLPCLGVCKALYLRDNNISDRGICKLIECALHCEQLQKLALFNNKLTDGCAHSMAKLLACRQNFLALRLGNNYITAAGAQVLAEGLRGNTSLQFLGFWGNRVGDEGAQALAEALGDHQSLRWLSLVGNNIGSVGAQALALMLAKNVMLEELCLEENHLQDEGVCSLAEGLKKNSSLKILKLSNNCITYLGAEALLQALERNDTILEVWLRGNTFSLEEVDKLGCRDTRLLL
T1 sequence (Q00975 whole entry): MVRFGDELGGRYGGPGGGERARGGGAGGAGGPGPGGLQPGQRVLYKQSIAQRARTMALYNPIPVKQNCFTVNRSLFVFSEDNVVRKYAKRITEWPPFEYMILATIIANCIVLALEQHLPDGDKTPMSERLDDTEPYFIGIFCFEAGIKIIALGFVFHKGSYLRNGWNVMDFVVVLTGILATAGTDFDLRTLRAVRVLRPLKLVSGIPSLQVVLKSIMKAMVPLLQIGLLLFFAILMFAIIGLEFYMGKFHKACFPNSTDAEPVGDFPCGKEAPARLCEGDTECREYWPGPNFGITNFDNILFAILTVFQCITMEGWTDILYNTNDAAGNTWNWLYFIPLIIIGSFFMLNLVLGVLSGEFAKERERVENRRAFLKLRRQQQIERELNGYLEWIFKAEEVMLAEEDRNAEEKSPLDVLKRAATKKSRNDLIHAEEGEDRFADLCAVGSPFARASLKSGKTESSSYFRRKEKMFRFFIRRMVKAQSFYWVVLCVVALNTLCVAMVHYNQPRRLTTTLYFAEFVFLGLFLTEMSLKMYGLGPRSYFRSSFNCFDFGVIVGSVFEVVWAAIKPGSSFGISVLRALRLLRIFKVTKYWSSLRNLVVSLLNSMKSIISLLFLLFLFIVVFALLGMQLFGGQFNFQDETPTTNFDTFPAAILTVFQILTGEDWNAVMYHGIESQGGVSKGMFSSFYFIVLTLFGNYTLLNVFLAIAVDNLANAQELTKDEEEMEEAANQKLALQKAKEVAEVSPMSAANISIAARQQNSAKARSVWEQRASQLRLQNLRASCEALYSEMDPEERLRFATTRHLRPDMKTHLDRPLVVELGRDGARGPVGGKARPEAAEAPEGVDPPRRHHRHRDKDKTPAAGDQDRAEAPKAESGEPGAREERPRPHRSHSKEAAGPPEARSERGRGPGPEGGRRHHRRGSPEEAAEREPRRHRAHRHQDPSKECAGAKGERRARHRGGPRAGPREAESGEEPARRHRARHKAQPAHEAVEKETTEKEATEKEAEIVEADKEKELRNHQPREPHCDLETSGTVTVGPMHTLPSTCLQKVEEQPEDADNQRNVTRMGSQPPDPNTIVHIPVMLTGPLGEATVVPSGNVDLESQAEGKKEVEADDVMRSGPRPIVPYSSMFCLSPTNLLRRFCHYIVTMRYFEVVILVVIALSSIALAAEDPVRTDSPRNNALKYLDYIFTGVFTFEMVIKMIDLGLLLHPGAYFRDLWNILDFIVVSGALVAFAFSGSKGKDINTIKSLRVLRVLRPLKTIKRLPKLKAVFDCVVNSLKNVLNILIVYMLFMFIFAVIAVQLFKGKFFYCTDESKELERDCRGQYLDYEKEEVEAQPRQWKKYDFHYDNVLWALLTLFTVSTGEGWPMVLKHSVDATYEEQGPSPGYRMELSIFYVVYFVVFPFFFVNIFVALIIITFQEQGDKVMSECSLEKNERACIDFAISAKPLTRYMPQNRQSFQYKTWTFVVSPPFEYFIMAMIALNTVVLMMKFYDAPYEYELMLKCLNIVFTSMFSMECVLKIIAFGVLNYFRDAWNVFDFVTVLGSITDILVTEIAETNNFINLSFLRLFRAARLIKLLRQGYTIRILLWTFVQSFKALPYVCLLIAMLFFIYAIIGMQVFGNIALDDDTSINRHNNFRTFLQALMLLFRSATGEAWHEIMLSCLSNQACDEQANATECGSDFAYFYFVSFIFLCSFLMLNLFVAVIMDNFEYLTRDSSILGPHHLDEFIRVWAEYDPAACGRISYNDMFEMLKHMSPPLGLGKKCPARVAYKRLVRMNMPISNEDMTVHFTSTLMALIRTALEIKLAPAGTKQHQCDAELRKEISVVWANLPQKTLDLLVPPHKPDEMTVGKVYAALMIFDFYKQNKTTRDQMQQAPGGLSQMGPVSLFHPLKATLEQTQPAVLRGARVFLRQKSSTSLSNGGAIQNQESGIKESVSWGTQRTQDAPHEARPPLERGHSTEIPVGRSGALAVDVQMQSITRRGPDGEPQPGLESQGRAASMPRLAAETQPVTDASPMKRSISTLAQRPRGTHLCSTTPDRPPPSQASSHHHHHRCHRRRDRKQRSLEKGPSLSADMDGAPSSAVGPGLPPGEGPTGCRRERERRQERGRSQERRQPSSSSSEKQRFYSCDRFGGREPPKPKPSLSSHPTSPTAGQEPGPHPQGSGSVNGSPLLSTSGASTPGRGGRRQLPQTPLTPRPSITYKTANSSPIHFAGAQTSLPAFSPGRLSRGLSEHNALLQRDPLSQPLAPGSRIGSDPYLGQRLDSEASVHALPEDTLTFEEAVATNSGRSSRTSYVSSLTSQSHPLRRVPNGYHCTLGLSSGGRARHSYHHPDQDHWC
T1 sequence (Q02410 whole entry): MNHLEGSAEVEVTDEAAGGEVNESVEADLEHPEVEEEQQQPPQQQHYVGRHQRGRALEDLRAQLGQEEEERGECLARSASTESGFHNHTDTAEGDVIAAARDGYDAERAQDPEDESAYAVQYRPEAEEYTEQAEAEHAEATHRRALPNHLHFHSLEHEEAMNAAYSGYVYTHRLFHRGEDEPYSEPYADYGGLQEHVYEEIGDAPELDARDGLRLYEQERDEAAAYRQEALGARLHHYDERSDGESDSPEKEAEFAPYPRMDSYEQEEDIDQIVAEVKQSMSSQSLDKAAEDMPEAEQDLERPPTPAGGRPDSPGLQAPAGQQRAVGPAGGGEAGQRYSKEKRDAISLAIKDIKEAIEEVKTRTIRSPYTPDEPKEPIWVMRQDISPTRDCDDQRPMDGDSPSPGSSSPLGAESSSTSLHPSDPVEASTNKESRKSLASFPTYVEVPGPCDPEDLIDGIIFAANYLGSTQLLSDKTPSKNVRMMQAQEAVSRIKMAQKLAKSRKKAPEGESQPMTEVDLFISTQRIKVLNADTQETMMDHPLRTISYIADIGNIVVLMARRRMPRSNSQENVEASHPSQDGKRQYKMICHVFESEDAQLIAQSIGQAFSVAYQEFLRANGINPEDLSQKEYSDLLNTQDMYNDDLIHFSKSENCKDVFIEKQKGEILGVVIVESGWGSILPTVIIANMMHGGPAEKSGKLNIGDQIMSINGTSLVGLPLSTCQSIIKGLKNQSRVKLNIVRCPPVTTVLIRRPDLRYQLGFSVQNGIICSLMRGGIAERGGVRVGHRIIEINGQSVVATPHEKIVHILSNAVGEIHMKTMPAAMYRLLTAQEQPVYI

As for `COC/C=C/C1=CC2=CC(=O)C(C)(OC(=O)CCC(=O)OC)C(=O)C2=CO1` (stereo unspecified), the IC50 was > 56.8 µM (not active) in [1], > 100 µM (active) at Large T antigen and 7.43 µM (active) in [4]. Besides, the EC50 was 22.1 µM (active) in assay [2] and 17 µM (active) in assay [3].
For `NS(=O)(=O)c1ccc(CCNC(=O)CCCn2c(SCC(=O)N3CCCC3)nc3ccsc3c2=O)cc1`, at Aminopeptidase N, the half-inhibitory concentration (IC50) was 97.7 µM (active).
Consider `O=C(CSc1nc2ccsc2c(=O)n1NC(=O)c1ccccc1)Nc1nccs1`, for which, on Aminopeptidase N, the IC50 was 37.4 µM (active).
Consider `O=C1CC(Sc2nc[nH]n2)C(=O)N1c1ccccc1` (stereo unspecified), for which the IC50 in assay [5] was 55.7 µM (active).
Consider `COC(=O)c1cc(NC(=O)Nc2cc(OC)ccc2OC)cc(C(=O)OC)c1`, for which the IC50 in the assay with H9c2 is 16.3 µM (active); in [6], > 80 µM (inactive).
On to `NC(=O)c1ccc(Oc2ccc3ccc(=O)oc3c2)c([N+](=O)[O-])c1`, for which the IC50 on Aminopeptidase N was 42.5 µM (active).
Regarding `COc1c(O)ccc2c1CN1CCc3cc4c(cc3C1C2)OCO4` (stereo unspecified), the IC50 in assay [7] was > 80 µM (inactive). The EC50 at Protein RecA was 14 µM (active).
For the compound `Cc1cc(-c2cc(C(=O)NCc3ccccc3)on2)nc(S(C)(=O)=O)n1`, the IC50 in [6] is > 80 µM (inactive).
With `Cc1cccc(NC(=O)COC(=O)CCc2c[nH]c3ccccc23)c1C`, the IC50 in “cells” was 2.82 µM (active).
With `COC(=O)CCC(=O)Nc1sc(C)c(C)c1C(N)=O`, the IC50 in [5] was 38.2 µM (active).
In the case of `O=C(CNC(=O)c1ccc(Br)cc1)NCC(=O)OCC(=O)c1ccc([N+](=O)[O-])cc1`, the IC50 in assay [7] is > 80 µM (inactive).
As for `COc1ccc(-c2nsc(SCC(=O)Nc3cc(C)on3)n2)cc1`, in assay [6], the IC50 was > 80 µM (inactive).
Turning to `COCCn1c(C)cc(C(=O)CSc2ncnc3sc4c(c23)CCC4)c1C`, the IC50 was > 20 µM (inactive) in the assay with HEK293 [8], 15 µM (active) in the assay on HEK293 [10], 18.6 µM (inactive) with HEK293 [12] and 19.4 µM (active) with HEK293 [13]. Besides, the EC50 in the assay with HEK293 [9] is 10.7 µM (active); in assay [11], 8.39 µM (active).
Take `O=C(Oc1cccc(/C=N/Nc2nc(N3CCOCC3)nc(N3CCOCC3)n2)c1)c1ccco1`: in [6], the IC50 is > 80 µM (inactive).
Still for that read-out and setting: to `Cn1c(=O)cc(OCCCC(=O)NC2CCCC2)c2ccccc21` belongs > 80 µM (inactive).
Consider `O=C(Oc1ccc(F)cc1)c1ccc2c(=O)n3c(nc2c1)CCC3`, for which the IC50 in the assay “cells” is 3.88 µM (active).
Regarding `CCOC(=O)c1c(C)[nH]c(C(=O)COC(=O)[C@H](C)N2C(=O)C3CCCCC3C2=O)c1C` (stereo partly specified), the AC50 in [14] is 46.8 µM (active).
With `COc1cccc(OCCOc2ccc(/C=C3/SC(=S)NC3=O)cc2)c1`, the IC50 in the assay on HEK293 [8] is > 20 µM (inactive); in the assay on HEK293 [10], 6.04 µM (active); in the assay with HEK293 [12] it was 6.67 µM (inactive); with HEK293 [13] it was 16.5 µM (active). The EC50 in the assay on HEK293 [9] was 4.27 µM (active); in assay [11], 9.33 µM (active).
`CCOCCCn1/c(=N/C(=O)c2cccnc2)c(C(=O)OCC)cc2c(=O)n3ccccc3nc21`: in assay [5], the IC50 was 41.3 µM (active).
As to `O=C(CNC(=O)c1cccs1)NCC(=O)OCC(=O)c1ccc([N+](=O)[O-])cc1`, the IC50 in assay [7] is > 80 µM (inactive).
